Reference: patent publication US7574340B2 (priority 2003, dated 2009)

Key:
BoNT/A holotoxin = BoNT/A holotoxin (Clostridium botulinum, UniProt P0DPI0); conditions: 3.3 μM; cited from earlier work
BoNT/A LC [1] = target: T1, BoNT/A LC (Clostridium botulinum, UniProt P0DPI0); assay: biochemical; assay type: biochemical
[2] = target: BoNT serotype B light chain (BoNT/B LC) (Clostridium botulinum, UniProt P10844); assay type: biochemical
anthrax lethal factor = anthrax lethal factor (Bacillus anthracis, UniProt P15917); assay type: biochemical
BoNT/A LC [3] = target: T1, BoNT/A LC; conditions: cited from earlier work

T1 sequence (P0DPI0 2-448 limits assumed): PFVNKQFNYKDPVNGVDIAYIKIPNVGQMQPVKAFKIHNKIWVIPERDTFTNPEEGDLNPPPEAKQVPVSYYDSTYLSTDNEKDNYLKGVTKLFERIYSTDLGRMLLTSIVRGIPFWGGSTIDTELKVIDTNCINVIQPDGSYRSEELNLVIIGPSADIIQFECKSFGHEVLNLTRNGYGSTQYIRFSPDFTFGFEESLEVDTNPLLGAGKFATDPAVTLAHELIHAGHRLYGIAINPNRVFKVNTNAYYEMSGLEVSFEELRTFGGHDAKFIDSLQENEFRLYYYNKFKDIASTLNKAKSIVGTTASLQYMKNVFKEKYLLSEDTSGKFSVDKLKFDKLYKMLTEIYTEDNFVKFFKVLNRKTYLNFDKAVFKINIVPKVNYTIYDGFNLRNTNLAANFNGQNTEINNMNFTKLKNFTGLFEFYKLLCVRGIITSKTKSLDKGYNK
Sequence of anthrax lethal factor (P15917 34-809 limits assumed): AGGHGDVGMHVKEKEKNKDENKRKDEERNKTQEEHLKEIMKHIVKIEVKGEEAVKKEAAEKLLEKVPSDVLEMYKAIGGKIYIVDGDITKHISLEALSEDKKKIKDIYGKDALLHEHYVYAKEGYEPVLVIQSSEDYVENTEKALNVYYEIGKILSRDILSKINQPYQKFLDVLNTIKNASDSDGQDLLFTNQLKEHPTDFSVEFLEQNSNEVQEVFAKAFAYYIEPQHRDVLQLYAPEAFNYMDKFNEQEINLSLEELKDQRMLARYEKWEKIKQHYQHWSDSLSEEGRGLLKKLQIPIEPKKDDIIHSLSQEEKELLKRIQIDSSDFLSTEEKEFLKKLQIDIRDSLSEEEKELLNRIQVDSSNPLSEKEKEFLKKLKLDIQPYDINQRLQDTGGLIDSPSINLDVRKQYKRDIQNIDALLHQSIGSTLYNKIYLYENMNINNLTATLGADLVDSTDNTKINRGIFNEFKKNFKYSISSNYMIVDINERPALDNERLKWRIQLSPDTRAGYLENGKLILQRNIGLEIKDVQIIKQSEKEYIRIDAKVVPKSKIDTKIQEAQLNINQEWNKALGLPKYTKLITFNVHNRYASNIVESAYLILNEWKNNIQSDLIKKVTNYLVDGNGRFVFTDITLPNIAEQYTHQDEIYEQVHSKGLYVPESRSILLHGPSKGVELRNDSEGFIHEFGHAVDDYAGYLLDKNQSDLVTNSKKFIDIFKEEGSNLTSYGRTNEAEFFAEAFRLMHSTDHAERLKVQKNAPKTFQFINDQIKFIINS
Sequence of BoNT serotype B light chain (BoNT/B LC) (P10844 2-441 limits assumed): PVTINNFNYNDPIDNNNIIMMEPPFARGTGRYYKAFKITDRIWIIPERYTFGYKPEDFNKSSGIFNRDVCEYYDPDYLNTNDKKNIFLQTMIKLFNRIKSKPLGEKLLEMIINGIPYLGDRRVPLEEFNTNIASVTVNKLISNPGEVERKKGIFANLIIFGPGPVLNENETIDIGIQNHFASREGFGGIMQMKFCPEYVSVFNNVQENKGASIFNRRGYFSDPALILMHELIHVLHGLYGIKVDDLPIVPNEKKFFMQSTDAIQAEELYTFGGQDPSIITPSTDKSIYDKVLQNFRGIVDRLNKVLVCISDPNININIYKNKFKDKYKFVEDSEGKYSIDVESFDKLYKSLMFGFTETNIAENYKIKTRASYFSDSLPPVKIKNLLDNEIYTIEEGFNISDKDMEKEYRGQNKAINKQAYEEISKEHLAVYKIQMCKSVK
Sequence of BoNT/A holotoxin (P0DPI0 2-448 limits assumed): as the sequence (P0DPI0 2-448 limits assumed) above
Sequence of BoNT/A holotoxin (P0DPI0 449-1296 limits assumed): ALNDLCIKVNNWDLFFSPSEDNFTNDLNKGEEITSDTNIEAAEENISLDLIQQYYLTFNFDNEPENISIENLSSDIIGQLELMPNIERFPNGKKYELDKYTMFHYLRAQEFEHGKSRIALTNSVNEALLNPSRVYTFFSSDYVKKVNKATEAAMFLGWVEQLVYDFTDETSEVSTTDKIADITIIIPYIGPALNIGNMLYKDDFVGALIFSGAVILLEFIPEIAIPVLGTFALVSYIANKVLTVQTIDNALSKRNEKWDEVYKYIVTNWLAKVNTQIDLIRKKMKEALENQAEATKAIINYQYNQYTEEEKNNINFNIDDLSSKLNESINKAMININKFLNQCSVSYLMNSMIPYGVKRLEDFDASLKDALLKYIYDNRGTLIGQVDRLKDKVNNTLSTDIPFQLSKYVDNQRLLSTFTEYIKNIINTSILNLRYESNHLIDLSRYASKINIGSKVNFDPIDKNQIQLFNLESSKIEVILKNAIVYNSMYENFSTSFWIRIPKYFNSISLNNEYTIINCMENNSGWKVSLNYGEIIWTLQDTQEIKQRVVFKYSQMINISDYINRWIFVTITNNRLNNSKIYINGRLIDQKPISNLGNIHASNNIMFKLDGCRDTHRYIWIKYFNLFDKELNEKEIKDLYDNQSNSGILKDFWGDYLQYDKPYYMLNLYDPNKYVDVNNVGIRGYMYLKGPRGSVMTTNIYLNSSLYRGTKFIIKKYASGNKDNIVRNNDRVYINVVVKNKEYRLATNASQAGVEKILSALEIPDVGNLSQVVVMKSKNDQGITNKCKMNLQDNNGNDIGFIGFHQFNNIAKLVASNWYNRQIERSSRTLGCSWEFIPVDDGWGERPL

CCN(CC)CCCC(C)Nc1c2ccc(Cl)cc2nc2ccc(OC)cc12 (racemic) [Quinacrine (racemic), Quinacrine]
delay of the time to about 50% muscle paralysis (over control) (BoNT/A holotoxin): at least 30%
inhibition at 20 µM (BoNT/A LC [1]): 30%

O=[N+]([O-])c1cc(Cc2cc([N+](=O)[O-])c3cccnc3c2O)c(O)c2ccccc12 [NSC 130796]
inhibition of BoNT/B LC protease activity (in words) [2]: inhibit
inhibition of anthrax lethal factor (in words) (anthrax lethal factor): inhibit
inhibition at 20 µM (BoNT/A LC [1]): 48%

NCCCC[C@H](N[C@@H](CCc1ccccc1)C(=O)O)C(=O)N1CCC[C@H]1C(=O)O [lysinopril]
BoNT/A LC inhibition (in words) (BoNT/A LC [3]): inhibited by mM concentrations

Quinidine
% Inhibition (BoNT/A LC [1]): 9 3%

CCOC(=O)[C@H](CCc1ccccc1)N[C@@H](C)C(=O)N1CCC[C@H]1C(=O)O [enalapril]
BoNT/A LC inhibition (in words) (BoNT/A LC [3]): inhibited by mM concentrations

Ic1ccc2nc3cc(Nc4ccc5c(c4)nc4ccc(I)cc4[n+]5-c4ccccc4)ccc3[n+](-c3ccccc3)c2c1 [NSC 402959]
inhibition at 20 µM (BoNT/A LC [1]): 40%

COc1cc(C)cc2c(-c3c(O)cc(O)c4c3C[C@@H](C)N[C@@H]4C)cc(-c3cc(-c4c(O)cc(O)c5c4C[C@@H](C)N[C@@H]5C)c4cc(C)cc(OC)c4c3O)c(O)c12 [NSC 661755, Michellamine B]
effect of added zinc on inhibition of BoNT/A LC (BoNT/A LC [1]): not affected by added zinc
inhibition at 20 µM (BoNT/A LC [1]): 62%

[Ag+] [silver ion]
effect of addition of DTT on inhibition (BoNT/A LC [1]): immediately reversed inhibition
effect of zinc in assays on inhibition (BoNT/A LC [1]): no effect
inhibition of protease activity (BoNT/A LC [1]): about 100%

O=C(O)c1c(I)c(I)c(I)c(I)c1C1c2ccc(O)cc2Oc2cc(O)ccc21 [NSC 119889]
inhibition at 20 µM (BoNT/A LC [1]): 56%

CCN(CC)Cc1cc(Nc2ccnc3cc(Cl)ccc23)ccc1O [Amodiaquine]
% Inhibition (BoNT/A LC [1]): 20%
inhibition at 20 µM (BoNT/A LC [1]): 30%

CCN(CC)CCCC(C)Nc1ccnc2cc(Cl)ccc12 (racemic) [Chloroquine (racemic), Chloroquine]
inhibition at 20 µM (BoNT/A LC [1]): 20%

C[C@H](CS)C(=O)N1CCC[C@H]1C(=O)O [captopril]
BoNT/A LC inhibition (in words) (BoNT/A LC [3]): inhibited by mM concentrations

Quinine
% Inhibition (BoNT/A LC [1]): 9 3%

Nc1c(/C=C/c2cc3cc(C4=NCCN4)ccc3o2)[nH]c2cc(C3=NCCN3)ccc12 [NSC 357756]
inhibition at 20 µM (BoNT/A LC [1]): 57%

CCOc1ccc2c(ccc(/C=C/c3ccc4c(C)ccnc4c3O)[n+]2C)c1 [NSC 86372]
inhibition of BoNT/B LC protease activity (in words) [2]: inhibit
inhibition of anthrax lethal factor (in words) (anthrax lethal factor): inhibit
effect of addition of zinc on inhibition (BoNT/A LC [1]): immediately and quantitatively reversed inhibition
inhibition at 20 µM (BoNT/A LC [1]): 51%
